Results reported in patent publication US7618787B2, “Method of screening compound capable of accelerating or inhibiting apoptosis, apoptosis accelarator and apoptosis inhibitor” (Hisamitsu Pharmaceutical Co., Inc., priority 2004, dated 2009).

How the values were obtained:
U2OS cells [1] = assay: RT-PCR analysis of RNA from U2OS cells treated with cisplatin; format: cell-based, human
Procedure: Total RNA was extracted from U2OS cells exposed to cisplatin (final concentration: 20 μM) by use of RNeasy Mini Kit (Qiagen) according to the manufacturer's protocol. Reverse transcription reaction was performed by mixing the total RNA (5 μg) with SuperScript II reverse transcriptase (Invitrogen) and random primers and incubating the mixture at 42° C. for 1 hour. After the completion of the reaction, cDNA was diluted with water and amplified with 15 μL of reaction solution (which contained 100 μM of each deoxynucleoside triphosphate, 1×PCR buffer, 1 μM of each primer, and 0.2 units of rTaq DNA polymerase (Takara Bio)). GAPDH expression was assayed and used as an internal standard. The PCR amplification products were separated by electrophoresis with 1.5% agarose gel in TAE buffer (40 mM Tris-Cl, 1 mM EDTA) and visualized with ethidium bromide (post-staining).

U2OS cells [2] = assay: Cell survival assay (MTT) of cisplatin-exposed cells; format: cell-based, human; conditions: cisplatin 20 μM, time course (FIG. 1)
Procedure: U2OS cells were seeded at a density of 5×10^3 cells/well to a 96-well tissue culture dish supplemented with 100 μL of complete medium, and then allowed to adhere thereto overnight. A cisplatin stock solution was filtered and sterilized with a filter of 0.45 μm in pore size and diluted with phosphate-buffered saline (PBS). Cisplatin was added at the final concentration of 20 μM to the cultures, followed by cell viability assay. The viability was assayed by a modified 3-(4,5-dimethylthiazol-2-yl)-2,5-diphenyl-tetrazolium bromide (MTT) assay at given time points after the cisplatin addition. The MTT assay was performed by adding 10 μL of MTT solution to each well and incubating the cultures at 37° C. for 1 hour. A microplate reader (Model 450; Bio-Rad) was used to measure the absorbance of each well at 570 nm.

U2OS cells [3] = assay: Immunoblot of nuclear and cytoplasmic fractions of U2OS cells treated with cisplatin; format: cell-based, human
Procedure: To prepare nuclear and cytoplasmic extracts, cells were washed with ice-cold PBS and suspended in lysis buffer (pH 7.5; which contained 10 mM Tris-Cl, 1 mM EDTA, 0.5% Nonidet P-40 (NP-40), 1 mM PMSF, and protease inhibitor mix (Sigma)). The suspended cells were incubated at 4° C. for 30 minutes and centrifuged at 5000 rpm for 10 minutes to collect soluble fractions (which were used as cytoplasmic extracts). Insoluble fractions were washed with lysis buffer and dissolved in 1×Laemmli SDS-sample buffer (pH 6.8; which contained 62.5 mM Tris-Cl, 2% SDS, 2% β-mercaptoethanol, and 0.01% bromophenol blue) to collect nuclear extracts. The nuclear and cytoplasmic fractions were subjected to immunoblot analysis using an anti-lamin B monoclonal (Ab-1; Oncogene Research Products) or anti-α-tubulin monoclonal (DM1A; Cell Signaling Technology) antibody. Nuclear and cytoplasmic extracts were prepared from cisplatin-exposed or untreated U2OS cells and subjected to immunoblot with a given antibody. The purity of the nuclear and cytoplasmic fractions was confirmed by immunoblot using anti-lamin B and anti-α-tubulin antibodies, respectively. In agreement with the previously reported results, IKK-α was localized in both the nucleus and the cytoplasm, whereas IKK-β was largely expressed in the cytoplasm (FIG. 4). The amounts of IKK-α, IKK-β, and IKK-γ in the cytoplasm were not changed regardless of cisplatin treatment.

NF-κB [4] = assay: NF-κB reporter luciferase assay in U2OS cells; format: cell-based, human; conditions: U2OS cells transfected with NF-κB reporter plasmid (FIG. 7)
Procedure: (§1) As described above, the amount of nuclear transactivating p65 subunit was not changed in U2OS cells treated with cisplatin. […] U2OS cells transfected with a NF-κB reporter plasmid were treated with cisplatin and assayed for their luciferase activities. […] L929 cells have been used widely for examining the TNF-α-dependent activation of NF-κB.

U2OS cells [5] = assay: Immunoblot of cell lysates of U2OS cells treated with cisplatin; format: cell-based, human
Procedure: Cells were transiently transfected with a total of 2 μg of expression plasmids. After 48 hours of the transfection, the cells were washed with ice-cold PBS and suspended in lysis buffer (pH 8.0; which contained 25 mM Tris-Cl, 137 mM sodium chloride, 1% Triton X-100, 1 mM phenylmethylsulfonyl fluoride (PMSF), and protease inhibitor mix (Roche Molecular Biochemicals)), followed by brief sonication. After centrifugation at 15000 rpm for 10 minutes, the supernatant was collected and assayed for protein concentrations by the Bradford assay (Bio-Rad). Equal amounts of lysates (protein amount: 50 μg) from the whole cells were denatured by boiling in Laemmli SDS-sample buffer, then separated on 10% SDS-polyacrylamide gel (SDS-PAGE), and transferred at room temperature for 1 hour to polyvinylidene difluoride (PVDF) membranes (Immobilon-P; Millipore) in Tris-glycine buffer containing 10% methanol. The membranes were blocked at room temperature for 1 hour with Tris-buffered saline (TBS-T) containing 5% skim milk and 0.1% Tween 20. Then, the membranes were reacted with an anti-FLAG monoclonal (M2; Sigma), anti-HA monoclonal (12CA5; Roche Molecular Biochemicals), anti-p73 monoclonal (Ab-4; NeoMarkers), anti-p53 monoclonal (DO-1; Oncogene Research Products), anti-Bax monoclonal (6A7; eBioscience), anti-IKK-α polyclonal (M-280; Santa Cruz Biotechnology), anti-IKK-β polyclonal (H-470; Santa Cruz Biotechnology), anti-IKK-γ polyclonal (FL-417; Santa Cruz Biotechnology), anti-p65 polyclonal (C-20; Santa Cruz Biotechnology), anti-IκB-α polyclonal (C-21; Santa Cruz Biotechnology), anti-actin polyclonal (20-33, Sigma), or anti p21^WAF1 polyclonal (H-164; Santa Cruz Biotechnology) antibody used as a primary antibody. After the reaction with the primary antibody, the membranes were reacted at room temperature for 1 hour with a horseradish peroxidase (HRP)-labeled goat anti-mouse or anti-rabbit secondary antibody (Cell Signaling Technologies) diluted 2000-fold in TBS-T. Immunoreactive proteins were finally visualized by use of an enhanced chemiluminescence system (ECL; Amersham Pharmacia Biotech) according to the manufacturer's instruction.

L929 cells = assay: Immunoblot of nuclear and cytoplasmic fractions of L929 cells; format: cell-based, mouse; conditions: L929 cells (FIG. 9)
Procedure: To prepare nuclear and cytoplasmic extracts, cells were washed with ice-cold PBS and suspended in lysis buffer (pH 7.5; which contained 10 mM Tris-Cl, 1 mM EDTA, 0.5% Nonidet P-40 (NP-40), 1 mM PMSF, and protease inhibitor mix (Sigma)). The suspended cells were incubated at 4° C. for 30 minutes and centrifuged at 5000 rpm for 10 minutes to collect soluble fractions (which were used as cytoplasmic extracts). Insoluble fractions were washed with lysis buffer and dissolved in 1×Laemmli SDS-sample buffer (pH 6.8; which contained 62.5 mM Tris-Cl, 2% SDS, 2% β-mercaptoethanol, and 0.01% bromophenol blue) to collect nuclear extracts. The nuclear and cytoplasmic fractions were subjected to immunoblot analysis using an anti-lamin B monoclonal (Ab-1; Oncogene Research Products) or anti-α-tubulin monoclonal (DM1A; Cell Signaling Technology) antibody.
as §1

NF-κB [6] = assay: NF-κB reporter activation in L929 cells; format: cell-based, mouse; conditions: L929 cells (FIG. 8)
Procedure: as §1

Molecule | expression of IKK-α and IKK-β mRNAs (U2OS cells [1]; cisplatin 20 μM (FIG. 3)) | expression of p53 and p73α mRNAs (U2OS cells [1]; cisplatin 20 μM (FIG. 3)) | expression level of IKK-γ mRNA (U2OS cells [1]; cisplatin 20 μM, time-dependent (FIG. 3)) | cell viability / apoptosis of U2OS cells (U2OS cells [2]) | cytoplasmic IκB-α (U2OS cells [3]; U2OS cytoplasmic fraction (FIG. 4)) | nuclear accumulation of IKK-α (U2OS cells [3]; U2OS nuclear fraction (FIG. 4)) | nuclear accumulation of p65-NF-κB subunit (RelA) (U2OS cells [3]; U2OS nuclear fraction (FIG. 4)) | NF-κB-dependent transcriptional activation (NF-κB [4]) | IKK-α protein level (U2OS cells [5]; 12 to 36 hours after cisplatin exposure (FIG. 2)) | IKK-γ (NEMO) protein level (U2OS cells [5]; after 12 hours of cisplatin treatment) | p53 and p73α protein levels (U2OS cells [5]; cisplatin exposure (FIG. 2)) | amount of IKK-β (U2OS cells [5]; cisplatin treatment) | phosphorylated form of IκB-α (U2OS cells [5]; cisplatin treatment) | nuclear accumulation of p65 (L929 cells) | NF-κB-dependent transcriptional activation (NF-κB [6])
N.N.[Cl][Pt][Cl] [cisplatin] | not changed | not induced | remarkable increase | underwent apoptosis in a time-dependent manner | decreased in a time-dependent manner | remarkably accumulated IKK-α in the nucleus in a time-dependent manner | almost no effect on the nuclear accumulation of p65-NF-κB subunit | did not enhance NF-κB-dependent transcriptional activation | remarkably accumulated IKK-α | transiently increased | remarkably induced at protein levels | hardly changed the amount of IKK-β | remarkably increased the phosphorylated form of IκB-α | – | –
TNF-α | – | – | – | – | – | – | – | – | – | – | – | – | – | remarkably accumulated p65 in the nucleus | NF-κB-dependent transcriptional activation was observed after 2 hours
